Measured values from patent US10888553B2, “Use of non-transition metal coordinated dipyridoxyl compounds to prevent and treat chemotherapy-induced PSN” (KARLSSON-TUNER INVEST AS, priority 2016, dated 2021).
Like-named read-outs stand apart in the source and are kept apart here.

Assays:
[1] = Platinum (Pt) urine excretion in rats receiving oxaliplatin i.v. after i.v. mangafodipir, fodipir or saline (Example 2); assay type: in vivo, Wistar rats; settings: 0-24 h urine; for recovery of oxaliplatin-derived Pt in urine, % of the administered dose: 26.4 μmol/kg i.v. 5 min before oxaliplatin 2 mg/kg i.v., administered Pt 277.5 μg, saline control 31.3%; for increase in Pt-excretion: versus saline control
Experimental: 2 male Wistar rats (approximately 250 g) were injected i.v., via one of the tail veins, with 0.25 ml mangafodipir (20 mg/kg; Lot no. 303001, Nycomed Imaging AS) or fodipir (17.4 mg/kg; Lot no. PKJ 1285/113-14, Nycomed Imaging AS), each corresponding to 26.4 μmol/kg. Another control rat received saline instead of mangafodipir or fodipir. […] The rats were then immediately placed in metabolic cages for urine collection over a period of 0-24 hours. The urine samples were thereafter stored at −80° C. until Pt analysis. Before analysis, the samples were thawed and extensively shaken to obtain homogenous samples. A five ml aliquot was taken from each sample and 5 ml concentrated nitric acid was added. The samples were then resolved in a microwave oven and thereafter diluted with distilled water. The Pt content of each sample was analyzed by ICP-MS (Inductively Coupled Plasma Mass Spectrometry). […] This sample was treated in an identical manner to that of the urine samples and analyzed for its Pt content. Results are presented as total 0-24 h urine Pt content, expressed as the total amount, as well as, as percentage of the injected dose.

[2] = cited from earlier work; for Mn^2+ content released from fodipir or its metabolites: intravenous, MRI dose 5-10 μmol/kg
[3] = cited from earlier work
[4] = 10 μmol/kg mangafodipir in 14 of 15 cycles, accumulated dose 140 μmol/kg; patient showed PD-like neurological symptoms; cited from earlier work
[5] = patients, single dose, over a 5-day period; cited from earlier work
[6] = in vivo; cited from earlier work
[7] = test system: CT26 colon cancer cells; settings: cited from earlier work
[8] = relative to mangafodipir; cited from earlier work
[9] = Zn^2+ binding to fodipir; cited from earlier work
[10] = Mn^2+ binding to fodipir; cited from earlier work
[11] = Ca^2+ binding to fodipir; cited from earlier work

## mangafodipir
[1]
  recovery of oxaliplatin-derived Pt in urine, % of the administered dose: 33.8%
  increase in Pt-excretion: 8.0%
[2]; MRI dose 5-10 μmol/kg injected
  Mn^2+ that stays bound: 20%
[2]
  Mn^2+ content released from fodipir or its metabolites: About 80%
[2]; listed as Mangafodipir
  Mn^2+ content released from fodipir or its metabolites: about 80%
[3]; after eight cycles with 5 μmol/kg mangafodipir co-treatment (accumulated 40 μmol/kg), before 11.8±5.5 nM
  mean plasma Mn content: 19.8 ± 4.3 nM
[3]; patients with PSN grade 2 or worse on a 1-3 scale
  pre-existing oxaliplatin-induced PSN after combined oxaliplatin and mangafodipir treatment: improved
[4]
  brain MRI finding: increased T1-weighted signal intensity in the basal ganglia

## O=C(O)C(=O)O.[NH-][C@@H]1CCCC[C@H]1[NH-].[Pt+2] [oxaliplatin]
[5]
  Pt dose excreted in feces: 2.1%
  Pt dose excreted in the urine: 53.8%
[6]
  terminal Pt half-life in red blood cells (RBC): about 50 days
  volume of distribution: about 600 litres
[7]; oxaliplatin alone
  killing of CT26 cells by oxaliplatin: killed CT26 cells in a concentration-dependent manner

## Cc1ncc(COP(=O)([O-])O)c(CN(CCN(CC(=O)O)Cc2c(COP(=O)([O-])O)cnc(C)c2O)CC(=O)O)c1O.Cc1ncc(COP(=O)([O-])O)c(CN(CCN(CC(=O)O)Cc2c(COP(=O)([O-])O)cnc(C)c2O)CC(=O)O)c1O.Cc1ncc(COP(=O)([O-])O)c(CN(CCN(CC(=O)O)Cc2c(COP(=O)([O-])O)cnc(C)c2O)CC(=O)O)c1O.Cc1ncc(COP(=O)([O-])O)c(CN(CCN(CC(=O)O)Cc2c(COP(=O)([O-])O)cnc(C)c2O)CC(=O)O)c1O.Cc1ncc(COP(=O)([O-])O)c(CN(CCN(CC(=O)O)Cc2c(COP(=O)([O-])O)cnc(C)c2O)CC(=O)O)c1O.[Ca+2].[Ca+2].[Ca+2].[Ca+2].[Mn+2] [calmangafodipir]
[8]
  manganese retention (and brain retention) reduced to: about 50%

## Cc1ncc(COP(=O)(O)O)c(CN(CCN(CC(=O)O)Cc2c(COP(=O)(O)O)cnc(C)c2O)CC(=O)O)c1O [fodipir, N,N′-bis-(pyridoxyl-5-phosphate)-ethylenediamine-N,N′-diacetic acid]
[1]
  recovery of oxaliplatin-derived Pt in urine, % of the administered dose: 43.4%
  increase in Pt-excretion: 40.6%
[7]; fodipir 10 μM
  effect of fodipir on cell killing in the lower concentration range of oxaliplatin: additive effect
[7]; fodipir 100 μM alone
  cell killing activity of fodipir towards CT26 colon cancer cells: almost complete cell killing activity
[7]; fodipir 10, 30, 100 μM
  interference of fodipir with the cancer cell killing ability of oxaliplatin: Neither 10, 30, nor 100 μM fodipir interfered negatively
[9]
  log formation constant (log KML): 18
[10]
  log formation constant (log KML): 15
[11]
  log formation constant (log KML): 9
